Laboratory results from US20200281202A1 (priority 2017, published 2020).

What follows are compounds tested on Phytophthora infestans (assay: microbe, parasite or virus in culture). Conditions: 30 ppm in Rye Agar medium; seven days at 18° C.
Type: cell-based
With `Cn1nc(C(F)(F)F)cc1OCC(=O)N1CCC(c2nc(C3=NOC(c4c(Cl)cccc4Cl)C3)cs2)CC1` (stereo not shown) [Compound 2] the “control (radial growth) compared to the untreated check” value was 70%.
`Cn1nc(OCC(=O)N2CCC(c3nc(C4=NOC(c5c(Cl)cccc5OS(C)(=O)=O)C4)cs3)CC2)cc1C(F)(F)F` (stereo not shown) [Compound 19] was tested, and the “control (radial growth) compared to the untreated check” value was 70%.
For `O=C(COc1ncc(C(F)(F)F)cc1Br)N1CCC(c2nc(C3=NOC(c4c(F)cccc4F)C3)cs2)CC1` (stereo not shown) [Compound 53], the “control (radial growth) compared to the untreated check” value was 70%.

Same assay, conditions: Phytophthora infestans, 168 h, read-out: control (radial growth) compared to the untreated check
`Cn1ccc(OCC(=O)N2CCC(c3nc(C4=NOC(c5c(F)cccc5F)C4)cs3)CC2)n1` (stereo not shown) [Compound 1, 1-(4-(4-(5-(2,6-difluorophenyl)-4,5-dihydroisoxazol-3-yl)thiazol-2-yl)piperidin-1-yl)-2-((1-methyl-1H-pyrazol-3-yl)oxy)ethan-1-one] showed an inhibition of growth at 30 ppm of 70%.
`Cn1nc(C(F)(F)F)cc1OCC(=O)N1CCC(c2nc(C3=NOC(c4c(F)cccc4F)C3)cs2)CC1` (stereo not shown) [Compound 3, 1-(4-(4-(5-(2,6-difluorophenyl)-4,5-dihydroisoxazol-3-yl)thiazol-2-yl)piperidin-1-yl)-2-((1-methyl-3-(trifluoromethyl)-1H-pyrazol-5-yl)oxy) ethan-1-one] was tested, and the inhibition of growth at 30 ppm was 70%.
For `Cn1nc(C(F)(F)F)cc1OCC(=O)N1CCC(c2nc(C3=NOC(c4c(Cl)cccc4OS(C)(=O)=O)C3)cs2)CC1` (stereo not shown) [Compound 4, 3-chloro-2-(3-(2-(1-(2-((1-methyl-3-(trifluoromethyl)-1H-pyrazol-5-yl)oxy)acetyl)piperidin-4-yl)thiazol-4-yl)-4,5-dihydroisoxazol-5-yl)phenyl methanesulfonate], the inhibition of growth at 30 ppm was 70%.
With `Cn1ccc(OCC(=O)N2CCC(c3nc(C4=NOC(c5c(Cl)cccc5OS(C)(=O)=O)C4)cs3)CC2)n1` (stereo not shown) [Compound 5, 3-chloro-2-(3-(2-(1-(2-((1-methyl-1H-pyrazol-3-yl)oxy)acetyl)piperidin-4-yl)thiazol-4-yl)-4,5-dihydroisoxazol-5-yl)phenyl methanesulfonate] the inhibition of growth at 30 ppm was 70%.
`Cn1nc(OCC(=O)N2CCC(c3nc(C4=NOC(c5c(F)cccc5F)C4)cs3)CC2)cc1C(F)F` (stereo not shown) [Compound 9] showed an inhibition of growth at 30 ppm of 70%.
`Cn1nc(OCC(=O)N2CCC(c3nc(C4=NOC(c5c(F)cccc5F)C4)cs3)CC2)cc1C(F)(F)F` (stereo not shown) [Compound 20, 1-(4-(4-(5-(2,6-difluorophenyl)-4,5-dihydroisoxazol-3-yl)thiazol-2-yl)piperidin-1-yl)-2-((1-methyl-5-(trifluoromethyl)-1H-pyrazol-3-yl)oxy) ethan-1-one] showed an inhibition of growth at 30 ppm of 70%.
In the case of `O=C(COc1cc(C(F)(F)F)ccn1)N1CCC(c2nc(C3=NOC(c4c(F)cccc4F)C3)cs2)CC1` (stereo not shown) [Compound 43], the inhibition of growth at 30 ppm is reported as 70%.
In the case of `CS(=O)(=O)Oc1cccc(Cl)c1C1CC(c2csc(C3CCN(C(=O)COc4cc(C(F)(F)F)ccn4)CC3)n2)=NO1` (stereo not shown) [Compound 46, 3-chloro-2-(3-(2-(1-(2-((4-(trifluoromethyl)pyridin-2-yl)oxy)acetyl)piperidin-4-yl)thiazol-4-yl)-4,5-dihydroisoxazol-5-yl)phenyl methanesulfonate], the inhibition of growth at 30 ppm is reported as 70%.
`O=C(COc1ccc(C(F)(F)F)cn1)N1CCC(c2nc(C3=NOC(c4c(Cl)cccc4Cl)C3)cs2)CC1` (stereo not shown) [Compound 47, 1-(4-(4-(5-(2,6-dichlorophenyl)-4,5-dihydroisoxazol-3-yl)thiazol-2-yl)piperidin-1-yl)-2-((5-(trifluoromethyl)pyridin-2-yl)oxy)ethan-1-one] gave an inhibition of growth at 30 ppm of 70%.
Work on `CS(=O)(=O)Oc1cccc(Cl)c1C1CC(c2csc(C3CCN(C(=O)COc4ccc(C(F)(F)F)cn4)CC3)n2)=NO1` (stereo not shown) [Compound 48, 3-chloro-2-(3-(2-(1-(2-((5-(trifluoromethyl)pyridin-2-yl)oxy)acetyl)piperidin-4-yl)thiazol-4-yl)-4,5-dihydroisoxazol-5-yl)phenyl methanesulfonate] yielded an inhibition of growth at 30 ppm of 70%.
For `O=C(COc1ccc(C(F)(F)F)cn1)N1CCC(c2nc(C3=NOC(c4c(F)cccc4F)C3)cs2)CC1` (stereo not shown) [Compound 49, 1-(4-(4-(5-(2,6-difluorophenyl)-4,5-dihydroisoxazol-3-yl)thiazol-2-yl)piperidin-1-yl)-2-((5-(trifluoromethyl)pyridin-2-yl)oxy)ethan-1-one], the inhibition of growth at 30 ppm was 70%.
For `O=C(COc1ncc(C(F)(F)F)cc1Br)N1CCC(c2nc(C3=NOC(c4c(Cl)cccc4Cl)C3)cs2)CC1` (stereo not shown) [Compound 51, 2-((3-bromo-5-(trifluoromethyl)pyridin-2-yl)oxy)-1-(4-(4-(5-(2,6-dichlorophenyl)-4,5-dihydroisoxazol-3-yl)thiazol-2-yl)piperidin-1-yl)ethan-1-one], the inhibition of growth at 30 ppm was 70%.
`O=C(COc1ncc(C(F)(F)F)cc1Br)N1CCC(c2nc(C3=NOC(c4c(Cl)cc(Cl)cc4Cl)C3)cs2)CC1` (stereo not shown) [Compound 54, 2-((3-bromo-5-(trifluoromethyl)pyridin-2-yl)oxy)-1-(4-(4-(5-(2,4,6-trichlorophenyl)-4,5-dihydroisoxazol-3-yl)thiazol-2-yl)piperidin-1-yl)ethan-1-one] showed an inhibition of growth at 30 ppm of 70%.
Work on `O=C(COc1ncccc1C(F)(F)F)N1CCC(c2nc(C3OCc4ccccc4CO3)cs2)CC1` [Compound 59, 1-(4-(4-(1,5-dihydrobenzo[e][1,3]dioxepin-3-yl)thiazol-2-yl)piperidin-1-yl)-2-((3-(trifluoromethyl)pyridin-2-yl)oxy)ethan-1-one] yielded an inhibition of growth at 30 ppm of 70%.
Compound `O=C(CSc1ncccc1C(F)(F)F)N1CCC(c2nc(C3=NOC(c4c(Cl)cc(Cl)cc4Cl)C3)cs2)CC1` (stereo not shown) [Compound 63] has an inhibition of growth at 30 ppm of 70%.
`O=C(CSc1ncc(C(F)(F)F)cc1Cl)N1CCC(c2nc(C3=NOC(c4c(F)cccc4F)C3)cs2)CC1` (stereo not shown) [Compound 65, 2-((3-chloro-5-(trifluoromethyl)pyridin-2-yl)thio)-1-(4-(4-(5-(2,6-difluorophenyl)-4,5-dihydroisoxazol-3-yl)thiazol-2-yl)piperidin-1-yl)ethan-1-one] showed an inhibition of growth at 30 ppm of 70%.
`CN(C)C(N(CC(=O)N1CCC(c2nc(C3=NOC(c4c(F)cccc4F)C3)cs2)CC1)c1ccc(C(F)(F)F)cn1)=[N+](C)C` (stereo not shown) [Compound 69] gave an inhibition of growth at 30 ppm of 70%.
`O=C(COc1cccc(C(F)(F)F)n1)N1CCC(c2nc(C3=NOC(c4c(Cl)cccc4Cl)C3)cs2)CC1` (stereo not shown) [Compound 70, 1-(4-(4-(5-(2,6-dichlorophenyl)-4,5-dihydroisoxazol-3-yl)thiazol-2-yl)piperidin-1-yl)-2-((6-(trifluoromethyl)pyridin-2-yl)oxy)ethan-1-one] gave an inhibition of growth at 30 ppm of 70%.
In the case of `CS(=O)(=O)Oc1cccc(Cl)c1C1CC(c2csc(C3CCN(C(=O)COc4cccc(C(F)(F)F)n4)CC3)n2)=NO1` (stereo not shown) [Compound 71, 3-chloro-2-(3-(2-(1-(2-((6-(trifluoromethyl)pyridin-2-yl)oxy)acetyl)piperidin-4-yl)thiazol-4-yl)-4,5-dihydroisoxazol-5-yl)phenyl methanesulfonate], the inhibition of growth at 30 ppm is reported as 70%.
Work on `O=C(COc1cccc(C(F)(F)F)n1)N1CCC(c2nc(C3=NOC(c4c(F)cccc4F)C3)cs2)CC1` (stereo not shown) [Compound 72, 1-(4-(4-(5-(2,6-difluorophenyl)-4,5-dihydroisoxazol-3-yl)thiazol-2-yl)piperidin-1-yl)-2-((6-(trifluoromethyl)pyridin-2-yl)oxy)ethan-1-one] yielded an inhibition of growth at 30 ppm of 70%.
In the case of `Cc1cccnc1OCC(=O)N1CCC(c2nc(C3=NOC(c4c(Cl)cccc4OS(C)(=O)=O)C3)cs2)CC1` (stereo not shown) [Compound 78, 3-chloro-2-(3-(2-(1-(2-((3-methylpyridin-2-yl)oxy)acetyl)piperidin-4-yl)thiazol-4-yl)-4,5-dihydroisoxazol-5-yl)phenyl methanesulfonate], the inhibition of growth at 30 ppm is reported as 70%.
`O=C(CNc1ncccc1C(F)(F)F)N1CCC(c2nc(C3=NOC(c4c(Cl)cccc4Cl)C3)cs2)CC1` (stereo not shown) [Compound 82, 1-(4-(4-(5-(2,6-dichlorophenyl)-4,5-dihydroisoxazol-3-yl)thiazol-2-yl)piperidin-1-yl)-2-((3-(trifluoromethyl)pyridin-2-yl)amino)ethan-1-one] was tested, and the inhibition of growth at 30 ppm was 70%.
In the case of `Cc1cnc(OCC(=O)N2CCC(c3nc(C4=NOC(c5c(Cl)cc(Cl)cc5Cl)C4)cs3)CC2)c(C(F)(F)F)c1` (stereo not shown) [Compound 83, 2-((5-methyl-3-(trifluoromethyl)pyridin-2-yl)oxy)-1-(4-(4-(5-(2,4,6-trichlorophenyl)-4,5-dihydroisoxazol-3-yl)thiazol-2-yl)piperidin-1-yl)ethan-1-one], the inhibition of growth at 30 ppm is reported as 70%.
In the case of `Cc1cnc(OCC(=O)N2CCC(c3nc(C4=NOC(c5c(Cl)cccc5Cl)C4)cs3)CC2)c(C(F)(F)F)c1` (stereo not shown) [Compound 84, 1-(4-(4-(5-(2,6-dichlorophenyl)-4,5-dihydroisoxazol-3-yl)thiazol-2-yl)piperidin-1-yl)-2-((5-methyl-3-(trifluoromethyl)pyridin-2-yl)oxy)ethan-1-one], the inhibition of growth at 30 ppm is reported as 70%.
`Cc1cnc(OCC(=O)N2CCC(c3nc(C4=NOC(c5c(Cl)cccc5OS(C)(=O)=O)C4)cs3)CC2)c(C(F)(F)F)c1` (stereo not shown) [Compound 85, 3-chloro-2-(3-(2-(1-(2-((5-methyl-3-(trifluoromethyl)pyridin-2-yl)oxy)acetyl)piperidin-4-yl)thiazol-4-yl)-4,5-dihydroisoxazol-5-yl)phenyl methanesulfonate] gave an inhibition of growth at 30 ppm of 70%.
For `Cc1cnc(OCC(=O)N2CCC(c3nc(C4=NOC(c5c(F)cccc5F)C4)cs3)CC2)c(C(F)(F)F)c1` (stereo not shown) [Compound 88, 1-(4-(4-(5-(2,6-difluorophenyl)-4,5-dihydroisoxazol-3-yl)thiazol-2-yl)piperidin-1-yl)-2-((5-methyl-3-(trifluoromethyl)pyridin-2-yl)oxy)ethan-1-one], the inhibition of growth at 30 ppm was 70%.
Work on `CS(=O)(=O)Oc1cccc(Cl)c1C1CC(c2csc(C3CCN(C(=O)COc4ncccc4C(F)F)CC3)n2)=NO1` (stereo not shown) [Compound 89, 3-chloro-2-(3-(2-(1-(2-((3-(difluoromethyl)pyridin-2-yl)oxy)acetyl)piperidin-4-yl)thiazol-4-yl)-4,5-dihydroisoxazol-5-yl)phenyl methanesulfonate] yielded an inhibition of growth at 30 ppm of 70%.
For `O=C(COc1ncccc1C(F)F)N1CCC(c2nc(C3=NOC(c4c(Cl)cccc4Cl)C3)cs2)CC1` (stereo not shown) [Compound 90], the inhibition of growth at 30 ppm was 70%.
